Measurements taken from patent publication US11453703B2, “Heterotandem bicyclic peptide complexes” (BicycleTX Limited, priority 2018, dated 2022).

What was measured:
human EphA2 protein = human EphA2 protein (Homo sapiens, UniProt P29317); assay: EphA2 Biacore (SPR) binding assay; details: biotinylated human EphA2, 25° C.
Experimental: Biacore experiments were performed to determine ka (M^−1s^−1), kd (s^−1), KD (nM) values of heterotandem peptides binding to human EphA2 protein.
EphA2 were biotinylated with EZ-Link™ Sulfo-NHS-LC-Biotin for 1 hour in 4 mM sodium acetate, 100 mM NaCl, pH 5.4 with a 3× molar excess of biotin over protein. The degree of labelling was determined using a Fluorescence Biotin Quantification Kit (Thermo) after dialysis of the reaction mixture into PBS. For analysis of peptide binding, a Biacore T200 instrument was used with a XanTec CMD500D chip. Streptavidin was immobilized on the chip using standard amine-coupling chemistry at 25° C. with HBS-N (10 mM HEPES, 0.15 M NaCl, pH 7.4) as the running buffer. Briefly, the carboxymethyl dextran surface was activated with a 7 min injection of a 1:1 ratio of 0.4 M 1-ethyl-3-(3-dimethylaminopropyl) carbodiimide hydrochloride (EDC)/0.1 M N-hydroxy succinimide (NHS) at a flow rate of 10 it/min. For capture of streptavidin, the protein was diluted to 0.2 mg/ml in 10 mM sodium acetate (pH 4.5) and captured by injecting 120 μl onto the activated chip surface. Residual activated groups were blocked with a 7 min injection of 1 M ethanolamine (pH 8.5):HBS-N (1:1). Buffer was changed to PBS/0.05% Tween 20 and biotinylated EphA2 was captured to a level of 500-1500 RU using a dilution of protein to 0.2 μM in buffer. A dilution series of the peptides was prepared in this buffer with a final DMSO concentration of 0.5% with a top peptide concentration was 50 or 100 nM and 6 further 2-fold dilutions. The SPR analysis was run at 25° C. at a flow rate of 90 μl/min with 60 seconds association and 900-1200 seconds dissociation. Data were corrected for DMSO excluded volume effects. All data were double-referenced for blank injections and reference surface using standard processing procedures and data processing and kinetic fitting were performed using Scrubber software, version 2.0c (BioLogic Software). Data were fitted using simple 1:1 binding model allowing for mass transport effects where appropriate.

CD137 [1] = target: T1, CD137 (Homo sapiens, UniProt Q07011); assay: CD137 reporter assay, co-culture with EphA2 tumour cells; type: cell-based; set-up: host or cells: Jurkat reporter cells; details: tumour target EphA2, co-culture with SC-OV-3, 6 h
Summary of the method: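 Jurkat CD137 reporter cells co-cultured with tumour cells and serially diluted test articles in RPMI-1640 + 1% FBS, 6 h at 37 °C, 5% CO2. Luminescence read after Bio-Glo; fold change over cells-only background fitted log(agonist) vs response for EC50 (nM) and maximal fold induction.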

CD137 [2] = target: T1, CD137; assay: CD137 Biacore (SPR) binding assay; set-up: purchased R&D systems; details: biotinylated human CD137, 25° C.
Summary of the method: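 Biotinylated human CD137 captured (270-1500 RU) on streptavidin-coupled dextran chip; peptides up to 500 nM in PBS/0.05% Tween 20, 0.5% DMSO, at 25°C, 60 s association, 900 s dissociation. Double-referenced data fitted to 1:1 binding model, with mass transport where appropriate.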

Sequence of human EphA2 protein (P29317 24-976): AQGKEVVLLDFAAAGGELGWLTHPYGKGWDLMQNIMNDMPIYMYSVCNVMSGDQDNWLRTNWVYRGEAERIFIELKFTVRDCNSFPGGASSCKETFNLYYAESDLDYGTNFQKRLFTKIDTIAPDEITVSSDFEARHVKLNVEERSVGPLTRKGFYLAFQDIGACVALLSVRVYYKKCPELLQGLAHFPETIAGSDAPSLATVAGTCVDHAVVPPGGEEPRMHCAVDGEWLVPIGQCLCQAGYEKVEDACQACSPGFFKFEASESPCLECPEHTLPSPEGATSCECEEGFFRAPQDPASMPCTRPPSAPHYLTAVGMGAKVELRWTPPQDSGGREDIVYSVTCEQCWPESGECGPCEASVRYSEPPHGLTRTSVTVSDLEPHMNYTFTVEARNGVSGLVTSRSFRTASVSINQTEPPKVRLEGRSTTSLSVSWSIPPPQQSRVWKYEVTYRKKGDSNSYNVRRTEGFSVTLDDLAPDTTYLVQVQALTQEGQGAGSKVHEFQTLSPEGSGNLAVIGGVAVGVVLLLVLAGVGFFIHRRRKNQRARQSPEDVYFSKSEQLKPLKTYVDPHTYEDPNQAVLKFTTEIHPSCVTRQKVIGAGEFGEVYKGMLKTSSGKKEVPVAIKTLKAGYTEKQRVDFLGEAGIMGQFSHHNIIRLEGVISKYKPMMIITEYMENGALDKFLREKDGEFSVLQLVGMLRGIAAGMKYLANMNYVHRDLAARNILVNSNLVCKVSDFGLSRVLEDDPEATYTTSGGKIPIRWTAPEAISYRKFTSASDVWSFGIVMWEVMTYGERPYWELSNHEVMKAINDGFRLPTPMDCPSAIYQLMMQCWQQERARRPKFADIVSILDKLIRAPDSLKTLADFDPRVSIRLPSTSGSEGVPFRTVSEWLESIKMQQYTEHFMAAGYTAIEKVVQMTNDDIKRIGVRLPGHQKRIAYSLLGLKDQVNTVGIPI
T1 sequence (Q07011 24-255): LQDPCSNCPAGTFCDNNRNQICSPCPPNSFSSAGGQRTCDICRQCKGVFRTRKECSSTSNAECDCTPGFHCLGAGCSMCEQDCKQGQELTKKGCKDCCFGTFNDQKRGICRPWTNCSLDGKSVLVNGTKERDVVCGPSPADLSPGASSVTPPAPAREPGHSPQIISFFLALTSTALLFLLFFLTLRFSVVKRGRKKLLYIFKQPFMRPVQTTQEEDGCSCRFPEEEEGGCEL

Structure (SMILES) | Kd (human EphA2 protein) [nM] | EC50 (CD137 [1]) [nM] | Fold Induction over Background (CD137 [1]) [fold] | Kd (CD137 [2]) [nM]
CCCC[C@@H]1NC(=O)[C@H](Cc2ccc(O)cc2)NC(=O)[C@@H]2CCCN2C(=O)[C@H](CC(=O)O)NC(=O)[C@H](C)NC(=O)[C@H](Cc2ccccc2)NC(=O)[C@@H]2CSCCC(=O)N3CN(CN(C3)C(=O)CCSC[C@@H](C(=O)N[C@@H](CNC(=O)CCc3cn(CCCNC(=O)CN(C)C(=O)CN(C)C(=O)CN(C)C(=O)CN(C)C(=O)CN(C)C(=O)CCOCCOCCOCCOCCOCCOCCOCCOCCOCCOCCOCCOCCOCCOCCOCCNC(=O)NCCC(=O)N(C)CC(=O)N(C)CC(=O)N(C)CC(=O)N(C)CC(=O)N(C)CC(=O)N(C)CC(=O)N(C)CC(=O)N(C)CC(=O)N(C)CC(=O)N(C)CC(=O)N[C@@H](C)C(=O)N[C@@H](CCCCNC(=N)N)C(=O)N[C@@H](CC(=O)O)C(=O)N[C@H]4CSCCC(=O)N5CN6CN(C5)C(=O)CCSC[C@H](NC(=O)[C@H](CC(C)C)NC(=O)[C@@H]5CCCN5C(=O)[C@H](CC(N)=O)NC(=O)[C@H](C(C)C)NC(=O)[C@H](CC(C)C)NC(=O)[C@@H]5C[C@@H](O)CN5C4=O)C(=O)N[C@@H](CC(C)C)C(=O)N[C@@H](Cc4c[nH]cn4)C(=O)N4CCC[C@H]4C(=O)N[C@H](CC(=O)O)C(=O)N[C@@H](Cc4c[nH]c5ccccc45)C(=O)N[C@@H](CCCCNC(=N)N)C(=O)N[C@H](C(N)=O)CSCCC6=O)nn3)C(N)=O)NC1=O)C(=O)CCSC[C@H](NC(=O)[C@H](C)NC(C)=O)C(=O)N[C@@H]([C@@H](C)CC)C(=O)N[C@@H](CCC(=O)O)C(=O)N[C@@H](CCC(=O)O)C(=O)NCC(=O)N[C@@H](CCC(N)=O)C(=O)N[C@@H](Cc1ccc(O)cc1)C(=O)N2 [BCY9655] | 1.33 | 4.1 | 6 | 199
CCCC[C@@H]1NC(=O)[C@H](Cc2ccc(O)cc2)NC(=O)[C@@H]2CCCN2C(=O)[C@H](CC(=O)O)NC(=O)[C@H](C)NC(=O)[C@H](Cc2ccccc2)NC(=O)[C@@H]2CSCCC(=O)N3CN(CN(C3)C(=O)CCSC[C@@H](C(=O)N[C@@H](CNC(=O)CCc3cn(CCOCCOCCOCCOCCOCCOCCOCCOCCOCCOCCNC(=O)NCCC(=O)N(C)CC(=O)N(C)CC(=O)N(C)CC(=O)N(C)CC(=O)N(C)CC(=O)N(C)CC(=O)N(C)CC(=O)N(C)CC(=O)N(C)CC(=O)N(C)CC(=O)N[C@@H](C)C(=O)N[C@@H](CCCCNC(=N)N)C(=O)N[C@@H](CC(=O)O)C(=O)N[C@H]4CSCCC(=O)N5CN6CN(C5)C(=O)CCSC[C@H](NC(=O)[C@H](CC(C)C)NC(=O)[C@@H]5CCCN5C(=O)[C@H](CC(N)=O)NC(=O)[C@H](C(C)C)NC(=O)[C@H](CC(C)C)NC(=O)[C@@H]5C[C@@H](O)CN5C4=O)C(=O)N[C@@H](CC(C)C)C(=O)N[C@@H](Cc4c[nH]cn4)C(=O)N4CCC[C@H]4C(=O)N[C@H](CC(=O)O)C(=O)N[C@@H](Cc4c[nH]c5ccccc45)C(=O)N[C@@H](CCCCNC(=N)N)C(=O)N[C@H](C(N)=O)CSCCC6=O)nn3)C(N)=O)NC1=O)C(=O)CCSC[C@H](NC(=O)[C@H](C)NC(C)=O)C(=O)N[C@@H]([C@@H](C)CC)C(=O)N[C@@H](CCC(=O)O)C(=O)N[C@@H](CCC(=O)O)C(=O)NCC(=O)N[C@@H](CCC(N)=O)C(=O)N[C@@H](Cc1ccc(O)cc1)C(=O)N2 [BCY9647] | 1.69 | 7.2 | 24 | 206
CCCC[C@@H]1NC(=O)[C@H](Cc2ccc(O)cc2)NC(=O)[C@@H]2CCCN2C(=O)[C@H](CC(=O)O)NC(=O)[C@H](C)NC(=O)[C@H](Cc2ccccc2)NC(=O)[C@@H]2CSCCC(=O)N3CN(CN(C3)C(=O)CCSC[C@@H](C(=O)N[C@@H](CNC(=O)CCc3cn(CCOCCOCCOCCOCCOCCOCCOCCOCCOCCOCCOCCOCCOCCOCCOCCOCCOCCOCCOCCOCCOCCOCCOCCNC(=O)NCCC(=O)N(C)CC(=O)N(C)CC(=O)N(C)CC(=O)N(C)CC(=O)N(C)CC(=O)N(C)CC(=O)N(C)CC(=O)N(C)CC(=O)N(C)CC(=O)N(C)CC(=O)N[C@@H](C)C(=O)N[C@@H](CCCCNC(=N)N)C(=O)N[C@@H](CC(=O)O)C(=O)N[C@H]4CSCCC(=O)N5CN6CN(C5)C(=O)CCSC[C@H](NC(=O)[C@H](CC(C)C)NC(=O)[C@@H]5CCCN5C(=O)[C@H](CC(N)=O)NC(=O)[C@H](C(C)C)NC(=O)[C@H](CC(C)C)NC(=O)[C@@H]5C[C@@H](O)CN5C4=O)C(=O)N[C@@H](CC(C)C)C(=O)N[C@@H](Cc4c[nH]cn4)C(=O)N4CCC[C@H]4C(=O)N[C@H](CC(=O)O)C(=O)N[C@@H](Cc4c[nH]c5ccccc45)C(=O)N[C@@H](CCCCNC(=N)N)C(=O)N[C@H](C(N)=O)CSCCC6=O)nn3)C(N)=O)NC1=O)C(=O)CCSC[C@H](NC(=O)[C@H](C)NC(C)=O)C(=O)N[C@@H]([C@@H](C)CC)C(=O)N[C@@H](CCC(=O)O)C(=O)N[C@@H](CCC(=O)O)C(=O)NCC(=O)N[C@@H](CCC(N)=O)C(=O)N[C@@H](Cc1ccc(O)cc1)C(=O)N2 [BCY9648] | 1.75 | 9.3 | 20 | 202
